Patent US12570659B2, “Bicyclic heteroaryl compounds useful as IRAK4 inhibitors” (BRISTOL-MYERS SQUIBB COMPANY, priority 2019, dated 2026)

Experiments:
IRAK4 = IRAK4 (Homo sapiens (Human), UniProt Q9NWZ3); assay: IRAK4 Inhibition Assay; type: biochemical; conditions: ATP 500 μM; IRAK4 0.6 nM; 60 min room temperature
Method: IRAK4 Inhibition Assay The assays were performed in U-bottom 384-well plates. […] The reaction was initiated by the combination of IRAK4 with substrates and test compounds. The reaction mixture was incubated at room temperature for 60 min. and terminated by adding 45 μL of 35 mM EDTA to each sample. The reaction mixture was analyzed on the Caliper LABCHIP® 3000 (Caliper, Hopkinton, MA) by electrophoretic separation of the fluorescent substrate and phosphorylated product. Inhibition data were calculated by comparison to no enzyme control reactions for 100% inhibition and vehicle-only reactions for 0% inhibition.

JAK3 kinase = JAK3 kinase (Homo sapiens (Human), UniProt P52333); assay: JAK3 Homogeneous Time Resolved Fluorescence (HTRF) Assay; type: binding; conditions: for IC50: competition binding with fluorescein-labeled ATP competitive probe; for Ratio of JAK3 IC50 to IRAK4 IC50: selectivity for IRAK4 over JAK3
JAK3 kinase, sequence (P52333 whole entry): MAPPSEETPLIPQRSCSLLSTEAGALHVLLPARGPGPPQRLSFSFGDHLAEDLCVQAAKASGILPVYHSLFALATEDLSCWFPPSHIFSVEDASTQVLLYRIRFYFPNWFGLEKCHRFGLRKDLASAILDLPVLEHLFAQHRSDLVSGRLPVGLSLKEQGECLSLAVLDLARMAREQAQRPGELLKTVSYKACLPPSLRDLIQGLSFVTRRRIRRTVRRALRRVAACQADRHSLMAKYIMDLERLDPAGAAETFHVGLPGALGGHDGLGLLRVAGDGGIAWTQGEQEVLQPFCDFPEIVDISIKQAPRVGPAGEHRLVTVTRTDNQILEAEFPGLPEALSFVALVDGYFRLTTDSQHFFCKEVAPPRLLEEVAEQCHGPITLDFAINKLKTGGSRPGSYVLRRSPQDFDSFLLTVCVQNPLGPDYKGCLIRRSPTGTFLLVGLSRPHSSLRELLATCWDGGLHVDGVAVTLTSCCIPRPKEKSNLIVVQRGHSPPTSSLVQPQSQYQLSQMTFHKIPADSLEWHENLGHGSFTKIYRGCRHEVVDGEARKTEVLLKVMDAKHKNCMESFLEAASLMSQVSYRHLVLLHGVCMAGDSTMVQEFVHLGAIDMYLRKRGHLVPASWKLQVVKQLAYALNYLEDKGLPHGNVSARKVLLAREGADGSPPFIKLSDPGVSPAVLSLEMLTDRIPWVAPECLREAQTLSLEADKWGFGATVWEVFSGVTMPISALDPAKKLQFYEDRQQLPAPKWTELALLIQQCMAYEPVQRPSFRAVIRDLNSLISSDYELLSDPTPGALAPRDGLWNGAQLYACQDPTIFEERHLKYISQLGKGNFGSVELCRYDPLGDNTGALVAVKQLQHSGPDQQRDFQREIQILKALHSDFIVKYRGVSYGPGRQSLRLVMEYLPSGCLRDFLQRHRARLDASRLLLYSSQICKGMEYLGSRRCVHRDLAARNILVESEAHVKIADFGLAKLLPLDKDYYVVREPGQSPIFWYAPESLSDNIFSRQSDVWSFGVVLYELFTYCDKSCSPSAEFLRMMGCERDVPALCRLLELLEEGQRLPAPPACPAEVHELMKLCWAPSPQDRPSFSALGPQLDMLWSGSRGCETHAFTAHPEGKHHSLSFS
Method: JAK3 Homogeneous Time Resolved Fluorescence (HTRF) Assay
A time resolved FRET-based competition binding assay was used to assess test article binding to JAK3 kinase. His-tagged or GST-tagged kinase at a concentration of 1 nM was incubated with 0.2 nM Tb-labeled detection antibody (anti-His or anti-GST), test compound, and fluorescein-labeled ATP competitive probe at a concentration corresponding to the probe's equilibrium dissociation constant for one hour. Fluorescence at 495 nm and 520 nm was measured using an EnVision microplate reader to quantify FRET between Tb-labeled detection antibody and fluorescein-labeled probe. Background subtracted FRET ratios were normalized to the maximum signal obtained in the absence of test compound. These values were converted to a percent inhibition. Percent inhibition was determined for test compounds at 11 concentrations. The IC50, defined as the concentration of the competing test compound needed to reduce specific binding of the probe by 50%, was calculated using the 4 parameter logistic equation to fit the data.

IRAK4, sequence (Q9NWZ3 whole entry, species assumed): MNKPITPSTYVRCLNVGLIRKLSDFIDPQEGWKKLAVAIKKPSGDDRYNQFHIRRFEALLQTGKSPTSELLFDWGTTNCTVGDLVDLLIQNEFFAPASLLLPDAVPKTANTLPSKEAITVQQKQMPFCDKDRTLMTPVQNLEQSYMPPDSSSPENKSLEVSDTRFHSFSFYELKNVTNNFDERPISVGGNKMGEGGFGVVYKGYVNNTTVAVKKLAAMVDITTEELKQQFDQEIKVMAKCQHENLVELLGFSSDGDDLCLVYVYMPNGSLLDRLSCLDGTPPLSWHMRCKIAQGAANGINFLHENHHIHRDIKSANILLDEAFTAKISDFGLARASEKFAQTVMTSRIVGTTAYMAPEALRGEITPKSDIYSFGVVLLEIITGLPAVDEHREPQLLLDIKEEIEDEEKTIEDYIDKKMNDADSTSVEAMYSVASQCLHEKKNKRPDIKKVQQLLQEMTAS

SMILES | IC50 (IRAK4) | IC50 (JAK3 kinase) | Ratio of JAK3 IC50 to IRAK4 IC50 (JAK3 kinase)
CC(C)Nc1c(C(=O)N[C@H]2CC[C@H](N)CC2)cnn2cc(-c3cccnc3)cc12 [Example 52, N-((1r,4r)-4-aminocyclohexyl)-4-(isopropylamino)-6-(pyridin-3-yl)pyrrolo[1,2-b]pyridazine-3-carboxamide] | 0.04 µM | ~43 µM | ~1075
CC(C)Nc1c(C(=O)NC[C@@H](F)C(C)(C)O)cnn2cc(-c3ccnc(N4CCOCC4)c3F)cc12 [Example 53, (R)-6-(3-fluoro-2-morpholinopyridin-4-yl)-N-(2-fluoro-3-hydroxy-3-methylbutyl)-4-(isopropylamino)pyrrolo[1,2-b]pyridazine-3-carboxamide] | 0.1 µM | ~50 µM | ~500
COc1cc(-c2cc3c(NC(C)C)c(C(=O)N[C@H]4CC[C@H](O)CC4)cnn3c2)c(F)cn1 [Example 57, 6-(5-fluoro-2-methoxypyridin-4-yl)-N-((1r,4r)-4-hydroxycyclohexyl)-4-(isopropylamino)pyrrolo[1,2-b]pyridazine-3-carboxamide] | 0.02 µM | > 50 µM | >2500
CC(C)Nc1c(C(=O)N[C@H]2CC[C@H](O)CC2)cnn2cc(-c3cccnc3)cc12 [Example 58, N-((1r,4r)-4-hydroxycyclohexyl)-4-(isopropylamino)-6-(pyridin-3-yl)pyrrolo[1,2-b]pyridazine-3-carboxamide] | 0.054 µM | > 50 µM | >926
COc1ncccc1-c1cc2c(NC(C)C)c(C(=O)N[C@H]3CC[C@H](NC(C)=O)CC3)cnn2c1 [Example 59, N-((1r,4r)-4-acetamidocyclohexyl)-4-(isopropylamino)-6-(2-methoxypyridin-3-yl)pyrrolo[1,2-b]pyridazine-3-carboxamide] | 0.029 µM | ~33 µM | ~1138
CC(=O)N[C@H]1CC[C@H](NC(=O)c2cnn3cc(-c4cn[nH]c4)cc3c2NC(C)C)CC1 [Example 61, N-((1r,4r)-4-acetamidocyclohexyl)-4-(isopropylamino)-6-(1H-pyrazol-4-yl)pyrrolo[1,2-b]pyridazine-3-carboxamide] | 0.011 µM | > 50 µM | >4545
CC(=O)N[C@H]1CC[C@H](NC(=O)c2cnn3cc(-c4c(C)ccnc4F)cc3c2NC(C)C)CC1 [Example 66, N-((1r,4r)-4-acetamidocyclohexyl)-6-(2-fluoro-4-methylpyridin-3-yl)-4-(isopropylamino)pyrrolo[1,2-b]pyridazine-3-carboxamide] | 0.059 µM | 18 µM | 305
CCOC(=O)N[C@H]1CC[C@H](NC(=O)c2cnn3cc(-c4ccncc4F)cc3c2NC(C)C)CC1 [Example 67, ethyl ((1r,4r)-4-(6-(3-fluoropyridin-4-yl)-4-(isopropylamino)pyrrolo[1,2-b]pyridazine-3-carboxamido)cyclohexyl)carbamate] | 0.013 µM | > 50 µM | 3846
Cc1cnccc1-c1cc2c(NC(C)C)c(C(=O)NCCC(C)(C)O)cnn2c1 [Example 72, N-(3-hydroxy-3-methylbutyl)-4-(isopropylamino)-6-(3-methylpyridin-4-yl)pyrrolo[1,2-b]pyridazine-3-carboxamide] | 0.07 µM | > 50 µM | >714
CC(=O)N[C@H]1CC[C@H](NC(=O)c2cnn3cc(-c4ccc(C(N)=O)cc4)cc3c2NC(C)C)CC1 [Example 74, N-((1r,4r)-4-acetamidocyclohexyl)-6-(4-carbamoylphenyl)-4-(isopropylamino)pyrrolo[1,2-b] pyridazine-3-carboxamide] | 0.096 µM | > 50 µM | >521
CC(=O)N[C@H]1CC[C@H](NC(=O)c2cnn3cc(-c4cnc(F)cc4C)cc3c2NC(C)C)CC1 [Example 75, N-((1r,4r)-4-acetamidocyclohexyl)-6-(6-fluoro-4-methylpyridin-3-yl)-4-(isopropylamino)pyrrolo[1,2-b]pyridazine-3-carboxamide] | 0.0058 µM | ~22 µM | ~3793
CC(=O)N[C@H]1CC[C@H](NC(=O)c2cnn3cc(-c4ccc(C(N)=O)cc4F)cc3c2NC(C)C)CC1 [Example 76, N-((1r,4r)-4-acetamidocyclohexyl)-6-(4-carbamoyl-2-fluorophenyl)-4-(isopropylamino) pyrrolo[1,2-b]pyridazine-3-carboxamide] | 0.092 µM | > 50 µM | >543
COc1cc(-c2cc3c(NC(C)C)c(C(=O)NCCC(C)(C)O)cnn3c2)c(F)cn1 [Example 78, 6-(5-fluoro-2-methoxypyridin-4-yl)-N-(3-hydroxy-3-methylbutyl)-4-(isopropylamino) pyrrolo[1,2-b]pyridazine-3-carboxamide] | 0.0091 µM | > 50 µM | >5495
Nc1c(C(=O)NCCN2CCOCC2)cnn2cc(-c3ccncc3F)cc12 [Example 79, 4-amino-6-(3-fluoropyridin-4-yl)-N-(2-morpholinoethyl)pyrrolo[1,2-b]pyridazine-3-carboxamide] | 0.11 µM | > 50 µM | >455
CC(=O)N[C@H]1CC[C@H](NC(=O)c2cnn3cc(-c4ccc(F)cn4)cc3c2NC(C)C)CC1 [Example 82, N-((1r,4r)-4-acetamidocyclohexyl)-6-(5-fluoropyridin-2-yl)-4-(isopropylamino)pyrrolo[1,2-b]pyridazine-3-carboxamide] | 0.034 µM | > 50 µM | >1471
Cc1cc(F)ncc1-c1cc2c(NC(C)C)c(C(=O)N[C@H]3CC[C@H](C(=O)N4CCOCC4)CC3)cnn2c1 [Example 83, 6-(6-fluoro-4-methylpyridin-3-yl)-4-(isopropylamino)-N-((1r,4r)-4-(morpholine-4-carbonyl)cyclohexyl)pyrrolo[1,2-b]pyridazine-3-carboxamide] | 0.023 µM | ~49 µM | ~2130
Cc1cc(F)ncc1-c1cc2c(NC(C)C)c(C(=O)NC3CCN(S(C)(=O)=O)CC3)cnn2c1 [Example 86, 6-(6-fluoro-4-methylpyridin-3-yl)-4-(isopropylamino)-N-(1-(methylsulfonyl)piperidin-4-yl)pyrrolo[1,2-b]pyridazine-3-carboxamide] | 0.046 µM | > 50 µM | >1087
CC(C)Nc1c(C(=O)NC[C@@H](F)C(C)(C)O)cnn2cccc12 [Example 96, (R)—N-(2-fluoro-3-hydroxy-3-methylbutyl)-4-(isopropylamino)pyrrolo[1,2-b]pyridazine-3-carboxamide] | 0.74 µM | > 50 µM | >68
CC(C)Nc1c(C(=O)NC[C@@H](F)C(C)(C)O)cnn2cc(-c3cccc(C#N)c3)nc12 [Example 98, (R)-2-(3-cyanophenyl)-N-(2-fluoro-3-hydroxy-3-methylbutyl)-8-(isopropylamino)imidazo[1,2-b]pyridazine-7-carboxamide] | 0.24 µM | > 50 µM | >208
CC(C)Nc1c(C(=O)NC[C@@H](F)C(C)(C)O)cnn2cc(-c3cccnc3)nc12 [Example 99, (R)—N-(2-fluoro-3-hydroxy-3-methylbutyl)-8-(isopropylamino)-2-(pyridin-3-yl) imidazo[1,2-b]pyridazine-7-carboxamide] | 0.066 µM | > 10 µM | >152
CC(C)Nc1c(C(=O)NC[C@@H](F)C(C)(C)O)cnn2cc(-c3ccncc3)nc12 [Example 100, (R)—N-(2-fluoro-3-hydroxy-3-methylbutyl)-8-(isopropylamino)-2-(pyridin-4-yl)imidazo[1,2-b]pyridazine-7-carboxamide] | 0.015 µM | > 50 µM | >3333
CC(C)Nc1c(C(=O)NC[C@@H](F)C(C)(C)O)cnn2cc(-c3ccc(C#N)nc3)nc12 [Example 101, (R)-2-(6-cyanopyridin-3-yl)-N-(2-fluoro-3-hydroxy-3-methylbutyl)-8-(isopropylamino)imidazo[1,2-b]pyridazine-7-carboxamide] | 0.07 µM | > 50 µM | >714
CC(C)Nc1c(C(=O)NC[C@@H](F)C(C)(C)O)cnn2cc(-c3cncs3)nc12 [Example 102, (R)—N-(2-fluoro-3-hydroxy-3-methylbutyl)-8-(isopropylamino)-2-(thiazol-5-yl)imidazo[1,2-b]pyridazine-7-carboxamide] | 0.022 µM | > 50 µM | >2273
CC(C)Nc1c(C(=O)NC[C@@H](F)C(C)(C)O)cnn2cc(-c3cccnc3F)nc12 [Example 103, (R)—N-(2-fluoro-3-hydroxy-3-methylbutyl)-2-(2-fluoropyridin-3-yl)-8-(isopropylamino)imidazo[1,2-b]pyridazine-7-carboxamide] | 0.045 µM | > 50 µM | >1111
